Assay results reported in patent US11377429B2, “Benzothia(di)azepine compounds and their use as bile acid modulators” (Albireo AB, priority 2020, dated 2022).

Tests used:
Human LBAT = target: T1, Human LBAT (Homo sapiens, UniProt Q14973); assay: LBAT (h/m) assay, human LBAT-overexpressing cells, 3H-taurocholic acid uptake; format: cell-based; details: read-out: hLBAT IC50
T1 construct: expressed in transfected cells; cultured under Geneticin selection
T1 sequence (Q14973 1-349): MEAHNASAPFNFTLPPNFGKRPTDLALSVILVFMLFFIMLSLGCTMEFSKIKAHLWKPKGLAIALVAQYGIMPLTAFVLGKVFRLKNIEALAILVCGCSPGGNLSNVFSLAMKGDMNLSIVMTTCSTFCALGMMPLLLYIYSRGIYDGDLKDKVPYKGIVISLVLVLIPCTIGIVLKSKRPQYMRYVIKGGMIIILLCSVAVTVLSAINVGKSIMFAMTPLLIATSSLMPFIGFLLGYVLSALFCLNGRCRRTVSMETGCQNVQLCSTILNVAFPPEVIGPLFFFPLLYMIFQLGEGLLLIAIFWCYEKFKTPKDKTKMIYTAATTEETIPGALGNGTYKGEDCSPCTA
Experimental: LBAT (h/m) Assay Protocol
20,000 cells (Human or Mouse LBAT-overexpressing cells) were seeded in 96-wells plate (Corning CLS3809) in 100 μL MEM-alpha medium (Gibco 12571-063) supplemented with 10% FBS (Gibco 10438026) containing Geneticin (Gibco 10131-027) (1 mg/mL) and incubated at 37° C. in 5% CO2 for 24 hours. After incubation, media was decanted from the wells and cells were washed two times with 300 μL of basal MEM-alpha medium (FBS-free). After decanting basal MEM-alpha medium each time, plates were tapped against paper towel to ensure maximum removal of residual media. For human LBAT, incubation mix was prepared by adding test inhibitor dilutions (3-fold serial dilution in DMSO (Sigma D2650), 10 points) in MEM-alpha (without FBS) containing 0.3 μM 3H-taurocholic acid (ARC ART-1368) and 7.5 μM cold taurocholic acid (Sigma T4009) (maintaining 0.2% final DMSO concentration). For mouse LBAT, incubation mix was prepared by adding test inhibitor dilutions (3-fold serial dilution in DMSO, 10 points) in MEM-alpha (without FBS) containing 0.3 μM 3H-taurocholic acid and 25 μM cold taurocholic acid maintaining 0.2% final DMSO concentration). 50 μL of incubation mix containing test inhibitors was then added to the wells (in duplicate) and the plates were incubated for 20 minutes in a CO2 incubator at 37° C. After incubation, the reaction was stopped by keeping the plates on ice water mix for 2-3 minutes and then the incubation mix was aspirated completely from the wells. The wells were washed two times with 250 μL of chilled unlabeled 1 mM taurocholic acid dissolved in HEPES (Gibco 15630080)-buffered (10 mM) HBSS (Gibco 14175079) (pH 7.4). The plates were tapped against a paper towel after every wash to ensure maximum removal of blocking buffer.
100 μL of MicroScint-20 (PerkinElmer 6013621) was added to the wells and kept overnight at room temperature before reading the plates in TopCount NXT™ Microplate Scintillation and Luminescence Counter from PerkinElmer under 3H Test protocol (set at 120 seconds reading time per well, with normal plate orientation).
(§1) Preparation of Test Compound Dilutions
(§2) All test compounds were provided in powder form at room temperature. 10 mM DMSO stocks of the test compounds were prepared, aliquoted and stored at −20° C. From the 10 mM DMSO stock of the compounds, a 3-fold serial dilution in DMSO was prepared to get a total of 10 dilutions of the test compounds. 0.5 μL of this dilution in DMSO was added to 250 μL of FBS-free basal media containing 3H-taurocholic acid and cold taurocholic acid to prepare the incubation mixture.

Human IBAT = target: T2, Human IBAT (Homo sapiens, UniProt Q12908); assay: IBAT (h/m) assay, human IBAT-overexpressing cells, 3H-taurocholic acid uptake; format: cell-based; details: read-out: hIBAT IC50
T2 construct: expressed in transfected cells; cultured under Puromycin selection
T2 sequence (Q12908 1-348): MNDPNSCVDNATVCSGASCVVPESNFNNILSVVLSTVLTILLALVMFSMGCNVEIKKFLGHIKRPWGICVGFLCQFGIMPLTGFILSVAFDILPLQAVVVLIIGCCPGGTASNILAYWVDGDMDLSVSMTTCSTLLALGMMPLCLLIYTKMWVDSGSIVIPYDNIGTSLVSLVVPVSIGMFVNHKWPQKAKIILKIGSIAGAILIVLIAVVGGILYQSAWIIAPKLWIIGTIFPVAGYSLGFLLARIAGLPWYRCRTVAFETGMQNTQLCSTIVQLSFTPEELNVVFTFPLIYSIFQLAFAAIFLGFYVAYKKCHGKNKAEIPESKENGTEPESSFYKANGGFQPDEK
Experimental: IBAT (h/m) Assay Protocol
10,000 cells (Human or Mouse IBAT-overexpressing cells) were seeded in 96-wells plate (Corning CLS3809) in 200 μL MEM-alpha medium (Gibco 12571-063) supplemented with 10% FBS (Gibco 10438026) containing Puromycin (Gibco A1113803) (10 μg/mL) and incubated at 37° C. in 5% CO2 for 48 hours. After incubation, media was decanted from the wells and cells were washed two times with 300 μL of basal MEM-alpha medium (FBS-free). After decanting basal MEM-alpha medium each time, plates were tapped against paper towel to ensure maximum removal of residual media. Test inhibitor dilutions (highest test concentration being 10 μM, 3-fold serial dilution, 10 points) prepared in DMSO (Sigma D2650) were added in incubation mix (maintaining 0.2% final DMSO concentration) containing 0.25 μM 3H-taurocholic acid (ARC ART-1368) and 5 μM of cold taurocholic acid (Sigma T4009). 50 μL of incubation mix containing test inhibitors was then added to the wells (in duplicate) and the plates were incubated for 20 minutes in a CO2 incubator at 37° C. After incubation, the reaction was stopped by keeping the plates on ice water mix for 2-3 minutes and then the incubation mix was aspirated completely from the wells. The wells were washed two times with 250 μL of chilled unlabeled 1 mM taurocholic acid dissolved in HEPES (Gibco 15630080)-buffered (10 mM) HBSS (Gibco 14175079) (pH 7.4). The plates were tapped against a paper towel after every wash to ensure maximum removal of blocking buffer. 100 μL of MicroScint-20 (PerkinElmer 6013621) was added to the wells and kept overnight at room temperature before reading the plates in TopCount NXT™ Microplate Scintillation and Luminescence Counter from PerkinElmer under 3H Test protocol (set at 120 seconds reading time per well).
as §1, §2

CCCCC1(CC)CN(c2ccc(F)cc2)c2cc(SC)c(OCC(C)(C)C(=O)O)cc2S(=O)(=O)C1 (racemic) [Example 4, 3-((3-butyl-3-ethyl-5-(4-fluorophenyl)-7-(methylthio)-1,1-dioxido-2,3,4,5-tetrahydro-1,5-benzothiazepin-8-yl)oxy)-2,2-dimethylpropanoic Acid]
IC50 (Human LBAT): 173 nM | IC50 (Human IBAT): 37 nM

CCC1(CC)CN(c2ccccc2)c2cc(SC)c(OCC(C)(F)C(=O)O)cc2S(=O)(=O)C1 (stereo not shown) [Example 6, 3-((3,3-diethyl-7-(methylthio)-1,1-dioxido-5-phenyl-2,3,4,5-tetrahydro-1,5-benzothiazepin-8-yl)oxy)-2-fluoro-2-methylpropanoic Acid]
IC50 (Human LBAT): 83 nM | IC50 (Human IBAT): 338 nM

CCCCC1(CC)CN(c2ccc(F)cc2)c2cc(SC)c(OCC(C)(C)C(=O)O)cc2S(=O)(=O)C1 (single isomer, unassigned) [5, enantiomer 2]
IC50 (Human LBAT): 119 nM | IC50 (Human IBAT): 770 nM

CCCCC1(CC)CN(c2ccc(F)cc2)c2cc(SC)c(OCC(OC)C(=O)O)cc2S(=O)(=O)C1 (stereo not shown) [Example 8, 3-((3-butyl-3-ethyl-5-(4-fluorophenyl)-7-(methylthio)-1,1-dioxido-2,3,4,5-tetrahydro-1,5-benzothiazepin-8-yl)oxy)-2-methoxypropanoic Acid]
IC50 (Human LBAT): 2990 nM | IC50 (Human IBAT): 4 nM

CCCCC1(C)CN(c2ccc(F)cc2)c2cc(SC)c(OCC(O)C(=O)O)cc2S(=O)(=O)C1 (single isomer, unassigned) [1, diastereomer 4]
IC50 (Human LBAT): 1050 nM | IC50 (Human IBAT): 122 nM

CCCC1(CCC)CN(c2ccccc2)c2cc(SC)c(OCC(O)C(=O)O)cc2S(=O)(=O)C1 (stereo not shown) [Example 14, 2-Hydroxy-3-((7-(methylthio)-1,1-dioxido-5-phenyl-3,3-dipropyl-2,3,4,5-tetrahydro-1,5-benzothiazepin-8-yl)oxy)propanoic Acid]
IC50 (Human LBAT): 3680 nM | IC50 (Human IBAT): 30 nM

CCCCC1(CCCC)CN(c2ccc(F)cc2)c2cc(SC)c(OCC(OC)C(=O)O)cc2S(=O)(=O)C1 (single isomer, unassigned) [10, enantiomer 2]
IC50 (Human LBAT): > 2220 nM | IC50 (Human IBAT): 4 nM

CCCCC1(CCCC)CN(c2ccc(F)cc2)c2cc(SC)c(OCC(OC)C(=O)O)cc2S(=O)(=O)C1 (stereo not shown) [Example 9, 3-((3,3-dibutyl-5-(4-fluorophenyl)-7-(methylthio)-1,1-dioxido-2,3,4,5-tetrahydro-1,5-benzothiazepin-8-yl)oxy)-2-methoxypropanoic Acid]
IC50 (Human LBAT): 5410 nM | IC50 (Human IBAT): 10 nM

CCCCC1(CCCC)CN(c2ccccc2)c2cc(SC)c(OCC(OCC)C(=O)O)cc2S(=O)(=O)C1 (stereo not shown) [Example 12, 3-((3,3-dibutyl-7-(methylthio)-1,1-dioxido-5-phenyl-2,3,4,5-tetrahydro-1,5-benzothiazepin-8-yl)oxy)-2-ethoxypropanoic Acid]
IC50 (Human LBAT): 1250 nM | IC50 (Human IBAT): 3 nM

CCC1(CC)CN(c2ccc(F)cc2)c2cc(SC)c(OCC(C)(C)C(=O)O)cc2S(=O)(=O)C1 [Example 13, 3-((3,3-diethyl-5-(4-fluorophenyl)-7-(methylthio)-1,1-dioxido-2,3,4,5-tetrahydro-1,5-benzothiazepin-8-yl)oxy)-2,2-dimethylpropanoic Acid]
IC50 (Human LBAT): 21 nM | IC50 (Human IBAT): 256 nM

CCCCC1(CCCC)CN(c2ccc(F)cc2)c2cc(SC)c(OCC(OC)C(=O)O)cc2S(=O)(=O)C1 (single isomer, unassigned) [10, enantiomer 1]
IC50 (Human LBAT): > 6670 nM | IC50 (Human IBAT): 40 nM

CCCCC1(CC)CN(c2ccc(F)cc2)c2cc(SC)c(OCC3(C(=O)O)CC3)cc2S(=O)(=O)C1 (racemic) [Example 2, 1-(((3-butyl-3-ethyl-5-(4-fluorophenyl)-7-(methylthio)-1,1-dioxido-2,3,4,5-tetrahydro-1,5-benzothiazepin-8-yl)oxy)methyl)cyclopropane-1-carboxylic Acid]
IC50 (Human LBAT): 320 nM | IC50 (Human IBAT): 11 nM

CCCCC1(C)CN(c2ccc(F)cc2)c2cc(SC)c(OCC(O)C(=O)O)cc2S(=O)(=O)C1 (single isomer, unassigned) [1, diastereomer 2]
IC50 (Human LBAT): 2020 nM | IC50 (Human IBAT): 2 nM

CCCCC1(C)CN(c2ccc(F)cc2)c2cc(SC)c(OCC(O)C(=O)O)cc2S(=O)(=O)C1 (single isomer, unassigned) [1, diastereomer 3]
IC50 (Human LBAT): 921 nM | IC50 (Human IBAT): 61 nM

CCCCC1(CC)CN(c2ccc(F)cc2)c2cc(SC)c(OCC(OCC)C(=O)O)cc2S(=O)(=O)C1 (stereo not shown) [Example 11, 3-((3-butyl-3-ethyl-5-(4-fluorophenyl)-7-(methylthio)-1,1-dioxido-2,3,4,5-tetrahydro-1,5-benzothiazepin-8-yl)oxy)-2-ethoxypropanoic Acid]
IC50 (Human IBAT): 10 nM

CCCCC1(CC)CN(c2ccc(F)cc2)c2cc(SC)c(OCC3(C(=O)O)CC3)cc2S(=O)(=O)C1 (single isomer, unassigned) [3, enantiomer 2]
IC50 (Human LBAT): 1080 nM | IC50 (Human IBAT): 258 nM
